Data on 24 compounds can be found in ChEMBL document CHEMBL2010679, “Development of a new class of aromatase inhibitors: design, synthesis and inhibitory activity of 3-phenylchroman-4-one (isoflavanone) derivatives” (Bioorg Med Chem, 2012).

pIC50: −log10 of the molar value.

The target in the first experiment is T1, Aromatase (Homo sapiens, UniProt P11511).
T1 sequence (P11511 whole entry): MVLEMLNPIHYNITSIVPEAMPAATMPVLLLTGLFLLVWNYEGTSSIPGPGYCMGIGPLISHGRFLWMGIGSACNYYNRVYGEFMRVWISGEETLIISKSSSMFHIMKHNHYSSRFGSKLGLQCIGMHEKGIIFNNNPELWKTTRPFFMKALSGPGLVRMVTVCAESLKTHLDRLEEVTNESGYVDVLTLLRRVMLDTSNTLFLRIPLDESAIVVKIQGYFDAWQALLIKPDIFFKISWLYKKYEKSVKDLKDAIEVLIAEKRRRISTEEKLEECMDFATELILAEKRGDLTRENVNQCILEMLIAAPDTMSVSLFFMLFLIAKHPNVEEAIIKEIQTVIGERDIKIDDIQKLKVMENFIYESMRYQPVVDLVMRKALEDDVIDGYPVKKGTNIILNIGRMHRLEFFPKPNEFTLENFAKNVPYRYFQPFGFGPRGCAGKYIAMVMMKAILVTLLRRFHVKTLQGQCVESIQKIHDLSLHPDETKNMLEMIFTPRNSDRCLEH
Conditions: not given; call rule not given here
Usually pIC50 stands for the negative decadic logarithm of the IC50, by convention in mol/L. Compound `O=C1c2ccccc2OC(O)C1c1ccccc1` (centres undefined) showed a pIC50 of 3.77.
Still for that read-out and setting: the result for `O=C1c2ccccc2OCC1c1ccc(O)cc1` (centres undefined) reads 3.80; that for `O=C1c2ccccc2OCC1c1ccc(O)c(O)c1` (centres undefined), at most 3.70.

Another experiment has as its target T1, Aromatase. The experiment in a line: Inhibition of human recombinant aromatase expressed in baculovirus/insect cells using 7-methoxy-trifluoromethylcoumarin as substrate after 30 mins by fluorescence-based spectrophotometry.
Conditions: not given
On to `O=C1c2ccccc2OCC1c1ccc(-c2ccccc2)cc1` (racemic), for which the IC50 result was “Not Active”.
Consider `O=C1c2ccccc2OCC1c1cc2ccccc2c2ccccc12` (racemic), for which the IC50 entry is reported as “Not Active”.

The same experiment, now with this note: read-out: IC50.
Turning to `COc1ccc2c(c1)OCC(c1ccccc1)C2=O` (racemic), the negative-log IC50 (pIC50) is 4.39.
As to `Cc1ccc2c(c1)C(=O)C(c1ccccc1)CO2` (racemic), the pIC50 was 4.36.
Same read-out and setting: the result for `Cc1ccc2c(c1)OCC(c1ccccc1)C2=O` (racemic) reads 4.74.
Regarding `Cc1cccc(C2COc3ccccc3C2=O)c1` (racemic), the negative-log IC50 (pIC50) was 4.70.
The same measure, in the same setting: as for `Cc1ccc(C2COc3ccccc3C2=O)cc1` (racemic), the figure is 4.39; as for `O=C1c2c(ccc3ccccc23)OCC1c1ccccc1` (racemic), 4.70.
With `O=C1c2ccccc2OCC1c1ccc(Oc2ccccc2)cc1` (racemic), the negative logarithm of the IC50 (pIC50) was 5.62.
Consider `COc1ccc2c(c1)C(=O)C(c1ccccc1)CO2` (racemic), for which the negative logarithm of the IC50 (pIC50) was 6.59.
For `COc1ccccc1C1COc2ccccc2C1=O` (racemic), the pIC50 is 4.01.
The same measure, in the same setting: as for `COc1cccc(C2COc3ccccc3C2=O)c1` (racemic), the figure is 4.00.
Take `COc1ccc(C2COc3ccccc3C2=O)cc1` (racemic): the pIC50 was 4.62.
Same read-out and setting: the result for `COc1cc(OC)cc(C2COc3ccccc3C2=O)c1` (racemic) reads 4.96; that for `O=C1c2ccccc2OCC1c1ccsc1` (racemic), 4.52; that for `O=C1c2ccccc2OCC1c1cccnc1` (racemic), 5.24.
The same measure, in the same setting: as for `O=C1c2cc(F)ccc2OCC1c1ccccc1` (racemic), the figure is 4.49.
`O=C1c2cc(Cl)ccc2OCC1c1ccccc1` (racemic): the pIC50 was 5.29.
Same read-out and setting: the result for `O=C1c2cc(Br)ccc2OCC1c1ccccc1` (racemic) reads 4.54.
On the same count and under the same terms, as for `CC(C)(C)c1ccc2c(c1)C(=O)C(c1ccccc1)CO2` (racemic), the figure is 4.21.
On to `O=C1c2ccccc2OCC1c1ccccc1` (racemic) [ISOFLAVANONE], for which the negative logarithm of the IC50 (pIC50) is 4.54.
